Data reported in patent US20260297042A1, “BIARYLAMIDE DERIVATIVES AND THEIR USE AS PKMYT1 INHIBITORS” (CANCER RESEARCH TECHNOLOGY LIMITED, priority 2023, published 2026).

Tests used:
WEE1 = target: T1, WEE1 (Homo sapiens, UniProt P30291); assay: Selectivity versus WEE1 assay (ADP-Glo enzymatic assay); type: biochemical; conditions: banded
T1 construct: purchased Thermo Fisher PR7373A
How it was run: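 WEE1 at 15 nM final in 50 mM HEPES pH 7.5, 10 mM MgCl2, 1 mM EGTA, 0.01% Brij-35, 1% DMSO; reaction started with 30 µM ATP, 60 min at 26 °C. ADP-Glo luminescence; IC50 from dose-response curves, replicates within 3-fold and r2 >0.9.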

KYSE-30 cells = assay: Cancer cell line proliferation assay, nuclear count, KYSE-30 (normal CCNE1); type: cell-based; conditions: Homo sapiens, normal CCNE1 expression, banded, read-out: KYSE30 GI50
Procedure: h-TERT-RPE1 TP53−/− and CCNE1 high expressing clones (clone cell lines 7 and 15) were treated with test compounds dissolved in DMSO at serially diluted concentrations alongside a DMSO only control for around 6 population doublings time. Cells were then fixed with 4% Paraformaldehyde and the cell nuclei were stained with DAPI (Sigma D9542). Images covering each well were acquired by an Opera Phenix® High-Content Screening System (PerkinElmer). Image analysis was performed using Harmony® high-content analysis software (PerkinElmer). Data analysis was performed using Microsoft Excel® and GI50 estimates generated with GraphPad Prism v9. Percent nuclear count was compared to vehicle control wells and used to measure inhibition of proliferation.
Cancer cell lines with either normal (KYSE-30) or amplified CCNE1 expression (OVCAR3-ovarian cancer) were evaluated for their sensitivity to PKMYT1 inhibitors in a nuclear count assay as described above for h-TERT-RPE1 TP53−/− and a CCNE1 high expressing clones, taking into account the slower cell cycle division times of these lines.

OVCAR 3 cells = assay: Cancer cell line proliferation assay, ATP-based cell viability (Cell Titre Glow), OVCAR 3 (CCNE1-amplified); conditions: KYSE30 (normal CCNE1) GI50 vs. OVCAR 3 (CCNE1-amplified) GI50
How it was run: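 Proliferation of KYSE-30 (normal CCNE1) and CCNE1-amplified OVCAR 3 ovarian cancer cells treated with PKMYT1 inhibitors, read by Cell Titre Glow luminescence. GI50 is the concentration giving 50% growth inhibition.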

[1] = target: T2, Cellular PKMYT1 Biomarker CDK1 pT14 (Homo sapiens, UniProt Q99640); assay: Inhibition of cellular PKMYT1 biomarker CDK1 pT14 in OVCAR 3 cells (immunoblot); type: cell-based; conditions: 20 hours incubation
T2 construct: read-out CDK1 phospho-T14 immunoblot
T2 sequence (Q99640 1-499): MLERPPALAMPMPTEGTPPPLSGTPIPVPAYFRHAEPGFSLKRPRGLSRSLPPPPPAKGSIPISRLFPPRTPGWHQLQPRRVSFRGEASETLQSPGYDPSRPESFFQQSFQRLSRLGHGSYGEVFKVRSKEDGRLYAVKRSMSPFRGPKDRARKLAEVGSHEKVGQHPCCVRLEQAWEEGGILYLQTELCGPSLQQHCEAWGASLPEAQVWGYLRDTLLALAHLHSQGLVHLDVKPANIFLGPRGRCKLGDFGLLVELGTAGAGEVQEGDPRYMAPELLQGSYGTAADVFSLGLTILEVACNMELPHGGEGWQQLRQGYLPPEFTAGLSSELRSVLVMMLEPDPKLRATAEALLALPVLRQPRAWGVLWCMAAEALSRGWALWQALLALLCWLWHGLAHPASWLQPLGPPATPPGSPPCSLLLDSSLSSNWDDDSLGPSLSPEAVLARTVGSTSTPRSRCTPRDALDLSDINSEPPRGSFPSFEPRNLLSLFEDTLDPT
How it was run: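 Confluent OVCAR 3 cells treated with a compound concentration range for 20 h at 37 °C. Lysates analysed by automated capillary immunoblot for CDK1 phospho-T14, with vinculin, fluorescence detection; IC50 by regression.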

T1 sequence (P30291 whole entry): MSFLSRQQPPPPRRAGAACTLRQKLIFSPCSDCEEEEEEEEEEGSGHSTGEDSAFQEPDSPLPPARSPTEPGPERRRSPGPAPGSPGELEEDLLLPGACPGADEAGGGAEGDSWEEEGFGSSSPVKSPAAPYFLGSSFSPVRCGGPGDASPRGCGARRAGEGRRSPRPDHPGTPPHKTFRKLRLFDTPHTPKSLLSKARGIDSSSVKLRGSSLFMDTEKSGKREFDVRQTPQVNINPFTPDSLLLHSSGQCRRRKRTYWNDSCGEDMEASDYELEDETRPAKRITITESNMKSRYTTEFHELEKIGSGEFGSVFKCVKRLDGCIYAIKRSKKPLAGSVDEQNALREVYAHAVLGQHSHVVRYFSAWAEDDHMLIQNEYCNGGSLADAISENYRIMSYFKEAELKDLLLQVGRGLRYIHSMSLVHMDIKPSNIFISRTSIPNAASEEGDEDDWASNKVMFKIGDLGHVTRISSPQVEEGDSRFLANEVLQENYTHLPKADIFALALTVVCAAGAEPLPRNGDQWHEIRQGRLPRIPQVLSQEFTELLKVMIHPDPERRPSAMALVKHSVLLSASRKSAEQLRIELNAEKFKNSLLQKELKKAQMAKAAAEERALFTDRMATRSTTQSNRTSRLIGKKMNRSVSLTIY

Structure (SMILES): CCN(CC)C(=O)Cn1cc(C)c(Nc2ncc(C(=O)Nc3c(C)ccc(O)c3C)s2)n1 [BAA-207, 2-[[1-[2-(diethylamino)-2-oxo-ethyl]-4-methyl-pyrazol-3-yl]amino]-N-(3-hydroxy-2,6-dimethyl-phenyl)thiazole-5-carboxamide]
- IC50 (WEE1; ADP-Glo, 15 nM WEE1, 60 minutes at 26° C.): 1 to 11 µM
- PKMYT1 vs. WEE1 selectivity (WEE1; fold difference in selectivity for PKMYT1 over WEE1, ">N" = at least in this band but could be higher): X (100-<1000 fold)
- GI50 (KYSE-30 cells): 3 to 10 µM
- Selectivity ratio KYSE30 Gl50 vs. OVCAR3 Gl50 (OVCAR 3 cells): Y (>20 fold)
- IC50 [1]: < 100 nM
